Results on ten compounds are retold here after ChEMBL document CHEMBL4190299, “Design, Synthesis, and Cancer Cell Growth Inhibitory Activity of Triphenylphosphonium Derivatives of the Triterpenoid Betulin” (J Nat Prod, 2017).

Test [1] concerns MCF7. Put plainly: cells. To be noted: Homo sapiens, MCF7, 72 h.
Description: Cytotoxicity against human MCF7 cells assessed as reduction in cell viability after 72 hrs by MTT assay
The test system of test [2] is PC-3. The test can be described thus: Cytotoxicity against human PC3 cells assessed as reduction in cell viability after 72 hrs by MTT assay. It is filed as functional, cell-based. Particulars: PC-3, 72 h. A general note: Tetrazolium dyes change colour on reduction, which living cells bring about.
A short description of test [3]: Cytotoxicity against human HSF cells assessed as reduction in cell viability after 72 hrs by MTT assay. The class given is cell-based.
Test [4] concerns PC-3. Put plainly: Induction of mitochondrial membrane potential loss in human PC3 cells assessed as fluorescence intensity at cytotoxic IC50 after 48 hrs by TMRE dye-based fluorescence assay based flow cytometry (reference value: 210.8). The class given is functional. A general note: A flow cytometer gives signals particle by particle.
Test [5] concerns PC-3. The test can be described thus: Induction of mitochondrial membrane potential loss in human PC3 cells assessed as fluorescence intensity at cytotoxic IC50 after 48 hrs by TMRE dye-based fluorescence assay based flow cytometry relative to untreated control. It is filed as functional.
For test [6], the system named is PC-3. Put plainly: Induction of cell cycle arrest in human PC3 cells assessed as effect on G0/G1 phase at cytotoxic IC50 after 48 hrs by propidium iodide staining based flow cytometry. The class given is functional.
The subject of test [7] is PC-3. Put plainly: Induction of cell cycle arrest in human PC3 cells assessed as effect on S phase at cytotoxic IC50 after 48 hrs by propidium iodide staining based flow cytometry. The class given is functional.
The subject of test [8] is PC-3. Put plainly: Induction of cell cycle arrest in human PC3 cells assessed as effect on G2/M phase at cytotoxic IC50 after 48 hrs by propidium iodide staining based flow cytometry. The class given is functional.

Active and inactive are the calls of the source. No cut-off for these calls is given here. Some results are limits rather than exact numbers.

`CC[C@]1(O)C[C@@H]2CN(CCc3c([nH]c4ccccc34)[C@@](C(=O)OC)(c3cc4c(cc3OC)N(C)[C@H]3[C@@](O)(C(=O)OC)[C@H](OC(C)=O)[C@]5(CC)C=CCN6CC[C@]43[C@@H]65)C2)C1` [VINBLASTINE] returned an IC50 in test [1] of 0.5 µM.
Take `C=C(C)[C@@H]1CC[C@]2(COC(=O)CCCC[P+](c3ccccc3)(c3ccccc3)c3ccccc3)CC[C@]3(C)[C@H](CC[C@@H]4[C@@]5(C)CC[C@H](OC(=O)CCCC[P+](c6ccccc6)(c6ccccc6)c6ccccc6)C(C)(C)[C@@H]5CC[C@]43C)[C@@H]12.[Br-].[Br-]`: the results for the IC50 in test [2], in test [3] and in test [1] were 0.47 µM, 0.76 µM and 0.48 µM, respectively. For the same compound, the Flu intensity in test [4] is 112.2. Also, the “fold change (FC)” value in test [5] came out at 2. In addition, the result in test [6], in test [7] and in test [8] was inactive.
Turning to `C=C(C)[C@@H]1CC[C@]2(COC(=O)CCCC[P+](c3ccccc3)(c3ccccc3)c3ccccc3)CC[C@]3(C)[C@H](CC[C@@H]4[C@@]5(C)CC[C@H](O)C(C)(C)[C@@H]5CC[C@]43C)[C@@H]12.[Br-]`, the IC50 is 0.12 µM in test [2], 1.5 µM in test [3] and 0.7 µM in test [1]. Besides, in test [4], the Flu intensity is recorded as 186.6. Moreover, the result in test [6], in test [7] and in test [8] was inactive.
As to `C=C(C)[C@@H]1CC[C@]2(COC(=O)CCC[P+](c3ccccc3)(c3ccccc3)c3ccccc3)CC[C@]3(C)[C@H](CC[C@@H]4[C@@]5(C)CC[C@H](O)C(C)(C)[C@@H]5CC[C@]43C)[C@@H]12`, the IC50 was found to be 0.16 µM in test [2], 2.1 µM in test [3] and 0.43 µM in test [1].
`COc1cccc2c1C(=O)c1c(O)c3c(c(O)c1C2=O)C[C@@](O)(C(=O)CO)C[C@@H]3O[C@H]1C[C@H](N)[C@H](O)[C@H](C)O1` [DOXORUBICIN]: the IC50 in test [1] amounted to 0.15 µM.
Turning to `C=C(C)[C@@H]1CC[C@]2(COC(=O)CCCCBr)CC[C@]3(C)[C@H](CC[C@@H]4[C@@]5(C)CC[C@H](OC(=O)CCCCBr)C(C)(C)[C@@H]5CC[C@]43C)[C@@H]12`, in test [4], the Flu intensity was found to be 187.9. Also, the Activity in test [5] was 10%. The result in test [6], in test [7] and in test [8] was inactive.
Take `C=C(C)[C@@H]1CC[C@]2(COC(=O)C[P+](c3ccccc3)(c3ccccc3)c3ccccc3)CC[C@]3(C)[C@H](CC[C@@H]4[C@@]5(C)CC[C@H](OC(=O)C[P+](c6ccccc6)(c6ccccc6)c6ccccc6)C(C)(C)[C@@H]5CC[C@]43C)[C@@H]12`: the IC50 in test [2] was found to be 6.9 µM; in test [3] it was 5.6 µM; in test [1], 8.7 µM.
For `C=C(C)[C@@H]1CC[C@]2(COC(=O)C[P+](c3ccccc3)(c3ccccc3)c3ccccc3)CC[C@]3(C)[C@H](CC[C@@H]4[C@@]5(C)CC[C@H](O)C(C)(C)[C@@H]5CC[C@]43C)[C@@H]12` the same measures were 6.8 µM, 9.9 µM and > 10 µM.
Regarding `C=C(C)[C@@H]1CC[C@]2(CO)CC[C@]3(C)[C@H](CC[C@@H]4[C@@]5(C)CC[C@H](O)C(C)(C)[C@@H]5CC[C@]43C)[C@@H]12` [BETULIN], the Flu intensity in test [4] worked out at 205.9. Besides, the result in test [6], in test [7] and in test [8] was inactive.
Regarding `C=C(C)[C@@H]1CC[C@]2(COC(=O)CCC[P+](c3ccccc3)(c3ccccc3)c3ccccc3)CC[C@]3(C)[C@H](CC[C@@H]4[C@@]5(C)CC[C@H](OC(=O)CCC[P+](c6ccccc6)(c6ccccc6)c6ccccc6)C(C)(C)[C@@H]5CC[C@]43C)[C@@H]12.[Br-].[Br-]`, the IC50 in test [2] worked out at 0.54 µM; in test [3], 0.86 µM; in test [1], 0.35 µM. Moreover, the Flu intensity in test [4] is reported as 90.1. In addition, the “fold change (FC)” value in test [5] is on record as 2. Also, the outcome in test [6], in test [7] and in test [8] was inactive.

For orientation: IC50 means the concentration that gives 50% inhibition.
